# Reference: patent US4743677A, “Calcitonin gene related peptide derivatives” (Toyo Jozo Co., Ltd., priority 1985, dated 1988)
# Experiments:
# [1] = Isoelectric point (pI) of the purified peptide; format: physicochemical; details: purified product
# [2] = Serum calcium level lowering effect in rats (atomic absorption spectrophotometry); format: in vivo; details: 80 μg/kg through tail vein, Wistar rats; for drop of serum calcium concentration compared with control group: blood at 30 and 60 minutes, control = dissolving solution only; for serum calcium concentration compared with h-CGRP administered group: versus h-CGRP 80 μg/kg
# Procedure: (§1) h-CGRP, desalanyl-deamino-h-CGRP and desalanyl-[Asu^2,7 ] -h-CGRP, each 80 μg, were dissolved in 1 ml of a citrate buffer (pH 6.5) containing 0.1% of bovine serum albumin (hereinafter called "dissolving solution") and then administered to a group of 5-6 Wistar rats (80-90 g) at 80 μg/kg through their tail veins. Upon elapsed time of 30 minutes and 60 minutes, blood samples were collected from their abdominal descending aortas. The serum calcium concentrations were measured by atomic absorption spectrophotometry while the serum phosphorus concentrations were determined the method proposed by Goldenberg et al. [Clin Chem., 12, 871-882 (1966)] .
# [3] = Serum phosphorus level lowering effect in rats (method of Goldenberg et al.); format: in vivo; details: 80 μg/kg through tail vein, Wistar rats; for drop of serum phosphorus concentration compared with control group: blood at 30 and 60 minutes, control = dissolving solution only; for serum phosphorus concentration compared with h-CGRP administered group: versus h-CGRP 80 μg/kg
# Procedure: as §1
# [4] = Stability in an aqueous solution; format: physicochemical
pI [1],stability in an aqueous solution [4],SMILES,drop of serum calcium concentration compared with control group [2],serum calcium concentration compared with h-CGRP administered group [2],drop of serum phosphorus concentration compared with control group [3],serum phosphorus concentration compared with h-CGRP administered group [3],activity exhibiting time (serum calcium lowering) compared with h-CGRP ([2]; 30 and 60 minutes),activity exhibiting time (serum phosphorus lowering) compared with h-CGRP ([3]; 30 and 60 minutes)
≥ 10.25,extremely good stability,"CC(C)C[C@H](NC(=O)CNC(=O)[C@H](C)NC(=O)[C@H](CC(C)C)NC(=O)[C@H](CCCNC(=N)N)NC(=O)[C@H](Cc1c[nH]cn1)NC(=O)[C@@H](NC(=O)[C@@H](NC(=O)[C@@H]1CCCCCC(=O)N[C@@H](CC(=O)O)C(=O)N[C@@H]([C@@H](C)O)C(=O)N[C@@H](C)C(=O)N[C@@H]([C@@H](C)O)C(=O)N1)C(C)C)[C@@H](C)O)C(=O)N[C@@H](CC(C)C)C(=O)N[C@@H](CO)C(=O)N[C@@H](CCCNC(=N)N)C(=O)N[C@@H](CO)C(=O)NCC(=O)NCC(=O)N[C@H](C(=O)N[C@H](C(=O)N[C@@H](CCCCN)C(=O)N[C@@H](CC(N)=O)C(=O)N[C@@H](CC(N)=O)C(=O)N[C@@H](Cc1ccccc1)C(=O)N[C@H](C(=O)N1CCC[C@H]1C(=O)N[C@H](C(=O)N[C@@H](CC(N)=O)C(=O)N[C@H](C(=O)NCC(=O)N[C@@H](CO)C(=O)N[C@@H](CCCCN)C(=O)N[C@@H](C)C(=O)N[C@@H](Cc1ccccc1)C(N)=O)C(C)C)[C@@H](C)O)C(C)C)C(C)C)C(C)C [desalanyl-[Asu^2,7]-h-CGRP]",about 20%,dropped with significance,about 20%,dropped with significance,–,–
≥ 10.25,–,CC(C)C[C@H](NC(=O)CNC(=O)[C@H](C)NC(=O)[C@H](CC(C)C)NC(=O)[C@H](CCCNC(=N)N)NC(=O)[C@H](Cc1c[nH]cn1)NC(=O)[C@@H](NC(=O)[C@@H](NC(=O)[C@@H]1CSSCCC(=O)N[C@@H](CC(=O)O)C(=O)N[C@@H]([C@@H](C)O)C(=O)N[C@@H](C)C(=O)N[C@@H]([C@@H](C)O)C(=O)N1)C(C)C)[C@@H](C)O)C(=O)N[C@@H](CC(C)C)C(=O)N[C@@H](CO)C(=O)N[C@@H](CCCNC(=N)N)C(=O)N[C@@H](CO)C(=O)NCC(=O)NCC(=O)N[C@H](C(=O)N[C@H](C(=O)N[C@@H](CCCCN)C(=O)N[C@@H](CC(N)=O)C(=O)N[C@@H](CC(N)=O)C(=O)N[C@@H](Cc1ccccc1)C(=O)N[C@H](C(=O)N1CCC[C@H]1C(=O)N[C@H](C(=O)N[C@@H](CC(N)=O)C(=O)N[C@H](C(=O)NCC(=O)N[C@@H](CO)C(=O)N[C@@H](CCCCN)C(=O)N[C@@H](C)C(=O)N[C@@H](Cc1ccccc1)C(N)=O)C(C)C)[C@@H](C)O)C(C)C)C(C)C)C(C)C [desalanyl-deamino-h-CGRP],about 20%,dropped with significance,about 20%,dropped with significance,prolonged,prolonged
